In patent US20120301895A1, “METHODS OF MODULATING BINDING OF SON OF SEVENLESS TO PHOSPHATIDIC ACID AND IDENTIFYING COMPOUNDS THAT MODULATE SUCH BINDING” (THE RESEARCH FOUNDATION OF STATE UNIVERSITY OF NEW YORK, priority 2007, published 2012):
Where a chain is given by its changes, count along the chain named.

Assays:
[1] = system: HIF2α; assay: HIF2α expression in 786-O cells (Western blot); type: cell-based, human; conditions: 0.5% serum, 4 hr, honokiol 20 μM, 1-BtOH 0.8%
Procedure: In FIG. 15B, 786-O cells were plated and then shifted to media containing 0.5% serum 24 hr later. 18 hr later, the cells were treated with 1-Bt0H (0.8%), honokiol (Hon) (20 μM), and t-BtOH (0.8%) as indicated. Cell lysates were prepared 4 hr later and examined for HIF2α and actin expression by Western lot analysis. The experiment shown is representative of two independent experiments.
Extraction of proteins from cultured cells and Western blot analysis of extracted proteins was performed using the ECL system (Amersham) as described previously (Chen et al., “Alternative Phospholipase D/mTOR Survival Signal in Human Breast Cancer Cells,” Oncogene 24:672-9 (2005), which is hereby incorporated by reference in its entirety).
The effect of honokiol on HIF2α expression was examined in these cells.

[2] = biological target: T1, Sos-PH (Homo sapiens, UniProt Q07889); assay: PA-induced plasma membrane translocation of GFP-tagged Sos-PH in COS-1 cells (fluorescence microscopy); type: cell-based, African green monkey; conditions: membrane-permeable PA 100 μM, 20 min, serum-starved COS-1 cells, wild-type Sos-PH
T1 construct: expressed in transfected cells; host or cells: COS-1
T1 sequence (Q07889 422-551): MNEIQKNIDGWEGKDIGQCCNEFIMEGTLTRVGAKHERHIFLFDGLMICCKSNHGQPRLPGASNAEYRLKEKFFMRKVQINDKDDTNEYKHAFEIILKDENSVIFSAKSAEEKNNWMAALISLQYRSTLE
Procedure: (§1) In FIG. 6A, COS-1 cells were transfected with GFP-tagged constructs of Sos-PH or Sos-PH-HR/EE. The cells were serum-starved and then treated with PA (100 μM) for 20 min. In FIG. 6B, COS-1 cells were transfected with HA-tagged Sos-ΔC or Sos-ΔC-HR/EE. The cells were serum-starved and then stimulated with serum (20%) for 10 min. For FIGS. 6A-B, the fluorescence staining patterns were analyzed through the acquisition of serial optical Z sections. The images shown represent single 0.25 μm optical sections acquired at the mid plane of the cells with the same exposure time. Membrane localization is reflected by the relative increase in fluorescence intensity at the cell periphery (arrowheads). The boxed areas are enlarged on the top and bottom of the corresponding images. The number of cells displaying plasma membrane localization of the protein is expressed as percentage of the total number of cells scored and normalized to the maximal value obtained for each experiment. […] Results are the mean+/−s.d. of three independent experiments with at least 100 cells scored in each experiment. Scale bars represent 20 μm in all panels. In FIGS. 6C-D, COS-1 cells were co-transfected with HA-tagged Ras and the indicated HA-tagged Sos-ΔC constructs. […] Ras activation was measured by the RBD pull-down assay as described in the Examples. […]

[3] = biological target: T2, Sos-PH (Homo sapiens, UniProt Q07889, H475E/R479E); assay: as above; type: cell-based, African green monkey; conditions: membrane-permeable PA 100 μM, 20 min, serum-starved COS-1 cells
T2 construct: expressed in transfected cells; host or cells: COS-1
T2 sequence (Q07889 422-551 H475E/R479E): T1 sequence (Q07889 422-551) with H54E, R58E
Procedure: as §1

[4] = system: Ras; assay: Ras activation by Sos-ΔC after PA treatment, RBD pull-down in COS-1 cells; type: cell-based; conditions: membrane-permeable PA 100 μM, serum-starved COS-1 cells
Procedure: as §1, with “The boxed areas are enlarged on the top and bottom of the corresponding images.” left out, “experiment.” for “experiment. Scale bars represent 20 μm in all panels. In FIGS. 6C-D, COS-1 cells were co-transfected with HA-tagged Ras and the indicated HA-tagged Sos-ΔC constructs.”
The levels of Ras-GTP were determined by the GST-RBD pull down assay as described previously (Boykevisch et al., “Regulation of Ras Signaling Dynamics by Sos-mediated Positive Feedback,” Curr. Biol. 16:2173-2179 (2006), which is hereby incorporated by reference in its entirety). […]

Sos-PH translocation to the plasma membrane [2]	plasma membrane recruitment of Sos-PH-HR/EE [3]	Compound	HIF2α expression [1]	Ras activation by SosΔC [4]	level of active Ras in cells expressing SosΔC-HR/EE [4]
		CCCCO [1-butanol]	suppressed		
stimulated	failed to induce	CCCCCCCCCCCC(=O)OC[C@H](COP(=O)(O)O)OC(=O)CCCCCCCCCCC [PA, 1,2-Dilauroyl-sn-Glycero-3-Phosphate]		sufficed to induce	did not increase
